In US5372816A, “Trehalostatin and process for the preparation thereof” (Suntory Limited, priority 1989, dated 1994):

What was measured:
[1] = system: Trehalase (Aldrichina grahami); assay: Enzyme inhibition spectrum: trehalase (Aldrichina grahami); type: biochemical
Description: 10 μl of an inhibitor solution and 10 μl of a trehalase solution (trehalase collected from Aldrichina grahami) were mixed. After 5 minutes incubation at 37° C., 80 μl of a 5 mM trehalose and 50 mM phosphate buffer solution (pH 6.5) was added, followed by an additional one-hour incubation at 37° C. Thereafter, 10 μl of a 50% trichloroacetic acid solution was added to terminate the reaction. Glucose formed in the reaction solution was determined by a new blood sugar test manufactured by Boehringer-Mannheim Ltd. The amount of the enzyme was such that absorbance of the wavelength ([…]) used in the glucose determination when conducted according to the above method without adding the inhibitor would become 1.0. The Trehalostatin concentration which can achieve 50% inhibition of enzyme (trehalase) activity in the above determination method was expressed as 1 unit/ml.
Each enzyme (200 μl) is incubated with Trehalostatin (0.01-50 μg) in 0.05 M acetate (pH 5-6) or phosphate (pH 6-7) buffer solution at 37° C. for 5 minutes. Then 20 μl of the resulting solution is collected and added with a substrate to a final concentration shown in the Table, making the total volume of the solution 100 μl. […]
(§1) (A) The glucose produced was determined by the new blood sugar test devised by Boehringer-Mannheim Ltd.

[2] = molecular target: T1, Taka-amylase A (yeast) (Saccharomyces cerevisiae, UniProt P00724); assay: Enzyme inhibition spectrum: Taka-amylase A (yeast), sucrose substrate; type: biochemical; set-up: key: ++: ID50 ≤ 1.0 μg; +: ID50 ≥ 1.0 μg; -: no inhibition; conditions: enzyme 100 μg; pH 5.5, 0.1% sucrose; measuring method A
T1 sequence (P00724 20-532): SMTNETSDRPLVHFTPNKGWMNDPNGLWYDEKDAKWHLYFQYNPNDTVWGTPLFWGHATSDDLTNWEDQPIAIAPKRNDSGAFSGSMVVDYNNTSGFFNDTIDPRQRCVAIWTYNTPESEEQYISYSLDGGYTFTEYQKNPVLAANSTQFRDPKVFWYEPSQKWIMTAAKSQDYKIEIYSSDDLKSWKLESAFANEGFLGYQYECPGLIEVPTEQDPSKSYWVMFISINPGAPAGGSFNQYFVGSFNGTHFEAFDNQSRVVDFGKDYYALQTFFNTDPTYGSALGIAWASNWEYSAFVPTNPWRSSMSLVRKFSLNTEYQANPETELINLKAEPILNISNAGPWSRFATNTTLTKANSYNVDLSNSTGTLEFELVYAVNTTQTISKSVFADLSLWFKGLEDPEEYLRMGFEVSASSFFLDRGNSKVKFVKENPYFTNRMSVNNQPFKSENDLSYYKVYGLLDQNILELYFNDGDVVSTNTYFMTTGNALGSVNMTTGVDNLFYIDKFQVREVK
Description: (§2) Each enzyme (200 μl) is incubated with Trehalostatin (0.01-50 μg) in 0.05 M acetate (pH 5-6) or phosphate (pH 6-7) buffer solution at 37° C. for 5 minutes. Then 20 μl of the resulting solution is collected and added with a substrate to a final concentration shown in the Table, making the total volume of the solution 100 μl. The mixture is incubated at 37° C. for 10 minutes and then incubated in a boiling water bath for 3 minutes to terminate the reaction.
(§3) Determination of activity was made by measuring the increase of the product in the reaction system according to the following methods A-C.
(§4) The quantity of Trehalostatin which can effect 50% inhibition of enzyme activity under the above-described conditions was indicated as ID50.
as §1

[3] = molecular target: T2, Trehalase (swine kidney) (Sus scrofa, UniProt I3LIR5); assay: Enzyme inhibition spectrum: trehalase (swine kidney); type: biochemical; conditions: enzyme 1.1 unit (nmol glucose/min); pH 6.5, 5 mM trehalase; measuring method A
T2 construct: purchased Sigma M8778; host or cells: swine kidney
T2 sequence (I3LIR5 24-583): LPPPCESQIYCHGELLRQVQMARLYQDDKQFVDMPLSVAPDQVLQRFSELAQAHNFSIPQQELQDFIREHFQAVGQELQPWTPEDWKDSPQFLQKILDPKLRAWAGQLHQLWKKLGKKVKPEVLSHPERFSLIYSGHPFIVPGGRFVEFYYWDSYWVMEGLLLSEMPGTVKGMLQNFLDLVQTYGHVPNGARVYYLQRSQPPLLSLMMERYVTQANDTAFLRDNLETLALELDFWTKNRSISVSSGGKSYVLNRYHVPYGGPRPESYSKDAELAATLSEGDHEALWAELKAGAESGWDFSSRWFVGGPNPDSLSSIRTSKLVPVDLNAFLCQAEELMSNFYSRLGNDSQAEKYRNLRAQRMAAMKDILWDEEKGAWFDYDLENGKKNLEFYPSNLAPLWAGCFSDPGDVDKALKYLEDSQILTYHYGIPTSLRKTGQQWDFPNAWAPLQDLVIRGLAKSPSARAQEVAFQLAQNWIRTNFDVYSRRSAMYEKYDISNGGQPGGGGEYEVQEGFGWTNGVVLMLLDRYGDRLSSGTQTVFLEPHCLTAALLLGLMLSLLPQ
Description: as §2, §3, §4, §1

[4] = molecular target: T3, α-glycosidase (yeast) (Saccharomyces cerevisiae, UniProt P53341); assay: Enzyme inhibition spectrum: α-glycosidase (yeast); type: biochemical; conditions: enzyme 1 μg; pH 7.1, 5 mM P-nitrophenyl glycoside; measuring method A
T3 construct: purchased TOYOBO Co., Ltd; host or cells: yeast
T3 sequence (P53341 whole entry): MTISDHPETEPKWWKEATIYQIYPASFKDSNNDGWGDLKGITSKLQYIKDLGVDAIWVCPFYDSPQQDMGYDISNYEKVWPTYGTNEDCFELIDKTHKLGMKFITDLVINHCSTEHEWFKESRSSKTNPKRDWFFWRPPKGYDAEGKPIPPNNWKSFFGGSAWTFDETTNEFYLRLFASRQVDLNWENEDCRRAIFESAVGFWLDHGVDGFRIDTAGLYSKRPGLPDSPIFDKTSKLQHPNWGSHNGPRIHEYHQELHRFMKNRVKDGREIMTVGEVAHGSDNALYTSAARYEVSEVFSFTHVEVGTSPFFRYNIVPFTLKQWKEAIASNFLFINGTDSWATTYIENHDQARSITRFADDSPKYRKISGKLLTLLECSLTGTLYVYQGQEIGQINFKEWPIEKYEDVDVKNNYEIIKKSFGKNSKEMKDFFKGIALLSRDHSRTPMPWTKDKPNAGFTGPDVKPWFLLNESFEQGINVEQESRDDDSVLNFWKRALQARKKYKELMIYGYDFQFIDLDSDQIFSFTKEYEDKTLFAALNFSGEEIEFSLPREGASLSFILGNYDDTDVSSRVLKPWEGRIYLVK
Description: as §2, §3, §4, §1

[5] = molecular target: T4, β-glycosidase (Asp. aculeatus) (Aspergillus aculeatus, UniProt P48825); assay: Enzyme inhibition spectrum: β-glycosidase (Asp. aculeatus); type: biochemical; conditions: enzyme 15 μg; pH 5.0, 0.5% salicin; measuring method A
T4 construct: a crude enzyme (prepared by University of Osaka Prefecture); host or cells: Aspergillus aculeatus
T4 sequence (P48825 20-860): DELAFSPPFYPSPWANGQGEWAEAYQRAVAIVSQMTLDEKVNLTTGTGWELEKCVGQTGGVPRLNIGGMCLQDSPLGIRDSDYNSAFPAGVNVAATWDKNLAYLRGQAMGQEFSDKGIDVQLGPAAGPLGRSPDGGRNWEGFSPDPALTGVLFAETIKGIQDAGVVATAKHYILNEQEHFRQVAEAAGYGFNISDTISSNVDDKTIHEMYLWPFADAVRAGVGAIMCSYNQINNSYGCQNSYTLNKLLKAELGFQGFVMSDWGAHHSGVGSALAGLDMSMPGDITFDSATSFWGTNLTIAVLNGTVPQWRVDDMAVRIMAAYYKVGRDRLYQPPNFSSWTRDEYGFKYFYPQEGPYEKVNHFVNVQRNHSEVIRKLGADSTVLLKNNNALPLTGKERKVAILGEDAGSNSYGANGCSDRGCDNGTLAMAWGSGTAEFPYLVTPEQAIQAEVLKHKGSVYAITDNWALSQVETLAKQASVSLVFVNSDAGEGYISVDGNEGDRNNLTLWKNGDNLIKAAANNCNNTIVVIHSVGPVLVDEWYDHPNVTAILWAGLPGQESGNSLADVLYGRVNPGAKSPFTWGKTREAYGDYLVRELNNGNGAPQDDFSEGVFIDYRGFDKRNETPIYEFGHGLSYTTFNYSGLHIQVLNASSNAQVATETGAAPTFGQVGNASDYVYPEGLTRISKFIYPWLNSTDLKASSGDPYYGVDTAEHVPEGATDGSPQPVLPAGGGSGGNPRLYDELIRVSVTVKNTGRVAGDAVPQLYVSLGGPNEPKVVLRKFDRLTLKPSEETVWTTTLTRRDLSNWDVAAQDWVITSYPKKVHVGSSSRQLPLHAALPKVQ
Description: as §2, §3, §4, §1

[6] = molecular target: Bacterial liquefying amylase (Bacillus amyloliquefaciens, UniProt P00692); assay: Enzyme inhibition spectrum: bacterial liquefying amylase; type: biochemical; set-up: key: ++: ID50 ≤ 1.0 μg; +: ID50 ≥ 1.0 μg; -: no inhibition; conditions: enzyme 0.4 μg; pH 5.0, 0.5% starch; measuring method C
Bacterial liquefying amylase, sequence (P00692 32-514): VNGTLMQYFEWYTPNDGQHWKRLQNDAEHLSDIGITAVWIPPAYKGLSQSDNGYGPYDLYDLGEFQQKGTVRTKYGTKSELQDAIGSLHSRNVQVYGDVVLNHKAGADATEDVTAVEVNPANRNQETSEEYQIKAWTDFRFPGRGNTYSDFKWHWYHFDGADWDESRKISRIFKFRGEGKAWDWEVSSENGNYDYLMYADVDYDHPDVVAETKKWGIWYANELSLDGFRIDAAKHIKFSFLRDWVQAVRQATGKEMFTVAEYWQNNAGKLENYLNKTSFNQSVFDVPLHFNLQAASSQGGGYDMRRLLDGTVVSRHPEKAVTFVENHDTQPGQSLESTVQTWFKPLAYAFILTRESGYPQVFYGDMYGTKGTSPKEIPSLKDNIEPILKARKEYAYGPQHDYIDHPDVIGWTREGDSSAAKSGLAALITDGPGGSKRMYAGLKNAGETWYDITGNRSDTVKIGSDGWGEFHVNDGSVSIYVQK
Description: as §2, §3, §4
(C) The increase of an amount of reducing sugar produced was measured according to the method shown in J. A. Thoma et al., The Enzyme, 3rd. ed., Ch. 5, pp. 115-189 (1971).

[7] = molecular target: T5, Trehalase (bovine colonic mucosa) (Bos taurus, UniProt E1B8N4); assay: Enzyme inhibition spectrum: trehalase (bovine colonic mucosa); type: biochemical; conditions: enzyme 2500 μg; pH 5.5, 5 mM trehalase; measuring method A
T5 construct: mucosal acetone powder Sigma (M2766); purchased Sigma M2766; host or cells: bovine colonic mucosa, acetone powder
T5 sequence (E1B8N4 24-579): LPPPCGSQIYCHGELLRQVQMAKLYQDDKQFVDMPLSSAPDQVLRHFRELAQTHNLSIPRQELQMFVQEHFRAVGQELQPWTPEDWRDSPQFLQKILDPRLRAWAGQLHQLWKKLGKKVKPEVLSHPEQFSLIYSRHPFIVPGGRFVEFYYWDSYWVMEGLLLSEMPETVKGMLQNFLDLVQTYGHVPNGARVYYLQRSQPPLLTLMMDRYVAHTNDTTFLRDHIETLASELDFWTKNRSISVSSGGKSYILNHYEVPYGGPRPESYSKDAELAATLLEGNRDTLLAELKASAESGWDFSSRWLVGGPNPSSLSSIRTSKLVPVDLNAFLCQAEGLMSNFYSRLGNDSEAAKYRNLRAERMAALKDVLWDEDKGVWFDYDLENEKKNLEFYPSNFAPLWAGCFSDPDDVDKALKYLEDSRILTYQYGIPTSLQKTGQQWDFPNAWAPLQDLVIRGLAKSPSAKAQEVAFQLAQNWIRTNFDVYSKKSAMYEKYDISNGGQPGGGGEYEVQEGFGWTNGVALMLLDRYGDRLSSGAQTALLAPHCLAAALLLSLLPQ
Description: as §2, §3, §4, §1

[8] = system: Gluco amylase (almond); assay: Enzyme inhibition spectrum: Gluco amylase (almond), salicin substrate; type: biochemical; set-up: key: ++: ID50 ≤ 1.0 μg; +: ID50 ≥ 1.0 μg; -: no inhibition; conditions: enzyme 10 μg; pH 5.0, 0.5% salicin; measuring method A
Description: as §2, §3, §4, §1

[9] = Solubility of Trehalostatin; type: physicochemical; conditions: in hexane, benzene, ethers and petroleum ether

**Q.** Which “Action (ID50)” value ([1]; enzyme 24 unit (nmol glucose/min), pH 5.5, 5 mM trehalase, measuring method A) does the source give for `OC[C@H]1O[C@H](N=C2NC3C(O2)C(O)C(O)C3(O)CO)[C@H](O)[C@@H](O)[C@@H]1O` (stereo partly shown) [Trehalostatin] here?
**A.** ++ (ID50 ≤ 1.0 μg)

**Q.** And the “inhibitory effect against trehalase in insects” value ([1]; trehalase in insects, especially Aldrichina grahami, statement in words)?
**A.** effective inhibitory effect against trehalase in insects, especially in Aldrichina grahami, even at a very low concentration

**Q.** What about the “Action (ID50)” value [2] of the same compound?
**A.** -

**Q.** What about the “Action (ID50)” value [3] of the same compound?
**A.** + (ID50 ≥ 1.0 μg)

**Q.** And the “Action (ID50)” value [4]?
**A.** + (ID50 ≥ 1.0 μg)

**Q.** And the “Action (ID50)” value [5]?
**A.** + (ID50 ≥ 1.0 μg)

**Q.** And the “Action (ID50)” value [6]?
**A.** -

**Q.** And the “Action (ID50)” value [7]?
**A.** + (ID50 ≥ 1.0 μg)

**Q.** What about the “Action (ID50)” value [8] of the same compound?
**A.** -

**Q.** And the Solubility [9]?
**A.** hardly or only slightly soluble
